Values of other authors, collected in US8198264B2, “Method for treating head and neck cancer” (National Cancer Center, priority 2006, dated 2012).

Tests used:
[1] = tested on: squamous cell head and neck cancer; conditions: regimen combined with radiotherapy, meta-analysis
[2] = tested on: advanced/relapsed head and neck cancer; conditions: 5-FU drug alone, continuous intravenous infusion

Molecule | odds ratio (add-on effect on survival) [1] | response rate [2]
O=c1[nH]cc(F)c(=O)[nH]1 [5-FU, 5-fluorouracil] | 0.66 | 15%
CO[C@@]12[C@H](COC(N)=O)C3=C(C(=O)C(C)=C(N)C3=O)N1C[C@@H]1N[C@@H]12 [Mitomycin C] | 0.54 | 
Bleomycin | 0.80 | 
